Experimental data from patent US11964984B2, “TXNIP-TRX complex inhibitors and methods of using the same” (CITY OF HOPE, priority 2020, dated 2024).

Columns and labels:
Assay type in all cases: cell-based
TXNIP/TRX interaction = target: T1, TXNIP/TRX interaction (Homo sapiens, UniProt Q9H3M7); assay: TXNIP/TRX co-immunoprecipitation in THP1 cells; conditions: 25 mM glucose, 5 uM compound, up to 72 hours
T1 construct: endogenous in cells; host or cells: THP1 cells cultured under 25 mM glucose; nuclear cell extracts
T1 sequence (Q9H3M7 1-391): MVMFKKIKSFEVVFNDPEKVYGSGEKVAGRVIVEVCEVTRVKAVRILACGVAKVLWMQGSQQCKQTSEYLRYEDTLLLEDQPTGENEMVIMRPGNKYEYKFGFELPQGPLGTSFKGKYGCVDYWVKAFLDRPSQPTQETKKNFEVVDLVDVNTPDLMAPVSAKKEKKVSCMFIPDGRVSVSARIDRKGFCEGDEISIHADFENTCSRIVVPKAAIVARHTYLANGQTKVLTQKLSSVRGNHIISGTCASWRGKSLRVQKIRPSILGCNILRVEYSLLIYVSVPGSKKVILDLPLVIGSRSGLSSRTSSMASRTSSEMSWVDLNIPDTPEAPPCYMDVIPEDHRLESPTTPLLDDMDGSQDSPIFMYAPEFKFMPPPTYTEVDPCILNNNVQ
Method: FIG. 8. Effects of C30 and C38 on TXNIP/TRX interaction. THP1 cells were cultured under 25 mM glucose with 5 uM C30 or C38 for 72 hours. Aliquots were taken at different time points as indicated and nuclear cell extracts were prepared. Standard co-IP was performed with mouse anti-TRX Ab overnight. Beads were washed with buffer and blots treated with rabbit anti-TXNIP antibody (Ab) for detection of the complex (upper band).
Experimental testing of small molecules: We developed several different bench-based assays to perform rigorous and reproducible tests for the predicted hit molecules. These assays include testing direct binding to TXNIP as well as functional assays including under diabetic high glucose conditions. The assays are: (1) drug affinity responsive target stability test that tests the direct binding of the compounds. In this assay, when a compound binds to its target molecule, it can reduce the rate of its proteolytic digestion. (2) This assay looks for compounds that can interfere with the interaction between TXNIP and TRX in THP-1 monocytes treated with high glucose. TXNIP is highly expressed in cells treated with high glucose, and therefore would have high concentration of TXNIP/TRX complexes in the cell extract. Co-immunoprecipitation was done in these extracts through adding TRX antibody, and then the effects of compounds added were tested. […]

TXNIP mRNA = TXNIP mRNA in human islets under high glucose plus cytokines; conditions: 25 mM glucose + TNFα, IL1β, IFNγ, 40 hours
Method: FIGS. 18A-18B. C30 and C38 compounds protect cells from apoptosis in human islets. 100 IEQ human islets (Hu 1178) were cultured in PIM(R)© containing NG (5.8 mM glucose) or HG (25 mM glucose), and TNFα (20 ng/ml), IL1β (20 ng/ml), IFNγ (200 ng/ml) for 40 hours with or without lead compounds. Total RNA was prepared and RT PCR performed. FIG. 18A: BCL2/BAX ratios are the mean±SEM from triplicates. Statistical analysis was performed for each column vs. HG, 3 cytokines using one-way ANOVA: *p<0.002. FIG. 18B: TXNIP relative mRNA levels. Data shown are the mean±SEM from triplicates. Statistical analysis was performed for each column vs. HG, 3 cytokines using one-way ANOVA: **p<0.0001.
We mimicked T1D conditions in vitro (25 mM glucose, […], […] and […]) to induced apoptosis in human islets (obtained from the Southern California Islet Cell Resources Center at City of Hope). This high glucose/cytokine cocktail was able to induce apoptosis in cultured human islets as indicated by a decrease in the BCL2/BAX ratio (FIG. 18A).

human islets = assay: Human islet viability by FDA/PI staining under high glucose plus cytokines; conditions: HG/cytokine cocktail, 24 hr, 5 uM compound
Method: FIG. 19. Lead compounds enhance viability in human islets and protect them from apoptosis. 200 IEQ human islets (Hu 1183) were cultured in PIM(R)® medium containing NG (5.8 mM glucose) or HG (25 mM glucose), and mixture of TNFα (20 ng/ml), IL1β (20 ng/ml), and IFNγ (200 ng/ml) for 24 hours with or without C30 or C38. Islets were collected, washed with PBS once and stained with FDA and PI for 5 minutes and visualized with a Keyence All-in-One Fluorescence Microscope (BZ-X800E).
Lead compounds increase viability of human islets. […] Fluorescein diacetate/propidium iodide (FDA/PI) staining was employed to assess human islet viability.

SMILES | TXNIP association/interaction with TRX (co-IP band) (TXNIP/TRX interaction) | TXNIP expression increased during apoptosis (TXNIP mRNA) | human islet viability (FDA/PI staining) (human islets)
COc1cc(N2CC[C@@H](c3ccc4ccccc4c3)[C@H](O)C2)nc(N)n1 [Compound C30] | significantly reduced | significantly ameliorated | protected human islets from death
c1ccc(CCNc2ncnc3c2oc2ccccc23)cc1 [Compound C38] | this interference was clearly reduced | significantly ameliorated | protected human islets from death
